Literature values in US7592468B2, “Production of Δ 9 tetrahydrocannabinol” (Resolution Chemicals Limited, priority 2003, dated 2009).

Conditions: greater than Δ8-THC

For `CCCCCc1cc(O)c2c(c1)OC(C)(C)[C@@H]1CCC(C)=C[C@@H]21` [Δ9-THC, Delta 9 tetrahydrocannabinol], which “psychomimetic activity relative to Δ8-THC” value is on record?
Its value is 20 times.
